Data on eight compounds can be found in US7629468B2 (Janssen Pharmaceutica NV, priority 2003, dated 2009).

The test system of data set [1] is rats with a Bennett ligation. The data set can be described thus: Cold allodynia test in rats with a Bennett ligation (cold plate testing). Particulars: male SD rats, IP, dose of 2.5 mg/kg bodyweight, retested after 60 minutes, cold plate 0.0 °C. The data set is classed as in vivo, rat. The protocol: Cold Allodynia Test in Rats with a Bennett Ligation
Male SD rats, weighing 240-280 g at the time of surgery were used.
For surgery, the animals were anaesthetised with Thalamonal (1 ml; subcutane) and sodium pentobarbital (40 mg/kg; intraperitoneal (IP)). The common sciatic nerve of the left hindpaw was exposed at the level of the middle of the thigh by blunt dissection through the biceps femoris. Proximal to the sciatic's trifurcation, about 7 mm of nerve was freed and four loose ligatures with 4.0 chromic gut were placed around the sciatic nerve. Great care was taken to tie the ligatures such that the diameter of the nerve was barely constricted. After surgery, the animals received 1.25 mg/kg naloxone IP.
Cold plate testing was performed on a metal plate of 30×30 cm with transparent acrylic walls around it. The cold plate was cooled to 0.0 (±0.5)° C. using a Julabo F25 cooler. For testing, the animal was placed on the cold plate and the duration of lifting of both the left and the right hindpaw was measured during 5 minutes. The difference in lifting time between the ligated and non-ligated paw was calculated.
At least one week after the operation, animals were placed on the cold plate test and a pre-drug measurement was taken. […] The results obtained during the post drug test were expressed as a percentage of those of the predrug test. […]

The target in data set [2] is T1, cloned rat mGluR1 receptor (Rattus norvegicus, UniProt P23385).
T1 construct: expressed in transfected cells; host or cells: CHO cells
T1 sequence (P23385 19-1199): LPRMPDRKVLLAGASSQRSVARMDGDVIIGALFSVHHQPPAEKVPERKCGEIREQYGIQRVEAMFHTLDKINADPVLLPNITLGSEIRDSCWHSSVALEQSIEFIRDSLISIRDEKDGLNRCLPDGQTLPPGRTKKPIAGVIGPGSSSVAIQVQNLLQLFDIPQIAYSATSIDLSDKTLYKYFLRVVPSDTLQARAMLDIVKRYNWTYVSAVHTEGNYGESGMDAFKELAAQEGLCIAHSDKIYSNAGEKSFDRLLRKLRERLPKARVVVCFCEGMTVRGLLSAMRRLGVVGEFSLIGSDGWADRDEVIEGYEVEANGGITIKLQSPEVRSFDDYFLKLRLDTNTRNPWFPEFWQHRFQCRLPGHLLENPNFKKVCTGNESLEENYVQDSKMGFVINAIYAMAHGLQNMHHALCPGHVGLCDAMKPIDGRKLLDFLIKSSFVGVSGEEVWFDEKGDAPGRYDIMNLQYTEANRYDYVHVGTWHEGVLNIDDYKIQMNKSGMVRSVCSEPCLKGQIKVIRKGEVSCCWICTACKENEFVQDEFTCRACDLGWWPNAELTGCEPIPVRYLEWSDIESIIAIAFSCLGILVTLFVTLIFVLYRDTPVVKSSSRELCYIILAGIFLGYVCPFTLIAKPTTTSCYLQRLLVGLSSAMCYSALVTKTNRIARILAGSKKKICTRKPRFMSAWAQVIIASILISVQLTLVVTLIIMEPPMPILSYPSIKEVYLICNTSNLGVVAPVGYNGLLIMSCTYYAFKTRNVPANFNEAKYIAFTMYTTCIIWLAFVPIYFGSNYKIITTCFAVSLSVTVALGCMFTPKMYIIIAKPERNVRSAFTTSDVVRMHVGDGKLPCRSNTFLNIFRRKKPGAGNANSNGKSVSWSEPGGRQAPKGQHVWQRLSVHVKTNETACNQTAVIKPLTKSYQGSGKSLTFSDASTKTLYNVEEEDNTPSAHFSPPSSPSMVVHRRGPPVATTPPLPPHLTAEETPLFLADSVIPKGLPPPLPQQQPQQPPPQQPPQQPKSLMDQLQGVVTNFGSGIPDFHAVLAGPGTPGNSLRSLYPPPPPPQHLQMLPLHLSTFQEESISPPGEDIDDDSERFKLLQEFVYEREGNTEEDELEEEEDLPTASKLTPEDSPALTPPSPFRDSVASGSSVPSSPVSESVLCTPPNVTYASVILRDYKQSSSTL
The data set can be described thus: Signal transduction at the cloned rat mGluR1 receptor in CHO cells (glutamate-induced intracellular Ca2+ rise, FLIPR). The data set is classed as cell-based.
Experimental: Pharmacological Example Signal Transduction at the Cloned Rat mGluR1 Receptor in CHO Cells
CHO cells expressing the mGluR1 receptor were plated in precoated black 96-well plates. […] The cells were loaded with Fluo-3 AM, plates were incubated for 1 hour at room temperature in the dark, cells were washed and the present compounds were added onto the cells for 20 minutes. […] Relative fluorescence units were recorded and average data graphs of quadruple wells were obtained.

Compound `CCc1cc2cc(C(=O)C3CCC(OC)CC3)ccc2nc1C#CCO` (centres unmarked) [Compound 18] displayed a melting point of 113 °C.

For the compound `CCc1cc2cc(C(=O)C3CCC(OC)CC3)ccc2nc1I` (centres unmarked) [Compound 21], the melting point worked out at 110 °C.

In turn, `CCc1cc2cc(C(=O)C3CCC(OC)CC3)ccc2nc1C#N` (centres unmarked) [Compound 22] displayed a melting point of 138 °C.

As for `CCc1cc2cc(C(=O)C3CCC(OC)CC3)ccc2nc1C` (centres unmarked) [Compound 27], the “all or none criterion on difference in lifting time between ligated and non-ligated paw, post-drug as percentage of pre-drug” value in data set [1] is “antagonism”.

Take `CCc1cc2cc(C(=O)Cc3ccsc3)ccc2nc1C` [Compound 299]: the IC50 in data set [2] is 0.0234 µM.

Take `CCc1cc2cc(C(=O)[C@H]3CC[C@@H](OC)CC3)ccc2nc1COC(C)=O` [Compound 348]: half-maximal inhibition in data set [2] (IC50) required 0.0891 µM.

In data set [2], `CO[C@H]1CC[C@@H](C(=O)c2ccc3nc4c(cc3c2)CCCCC4)CC1` [Compound 426] showed an IC50 of 0.0776 µM.

Compound `O=C(Cc1ccsc1)c1ccc2nc3c(cc2c1)CCCS3` [Compound 464] had an IC50 in data set [2] of 0.0269 µM.

One may read the melting point as the temperature of the solid-liquid transition. By IC50 is commonly meant the concentration needed to halve the response being measured. Low readings indicate greater potency, high ones weaker potency.
